Earlier results, collected in publication PMC9762682, “Tocotrienols: Exciting Biological and Pharmacological Properties of Tocotrienols and Naturally Occurring Compounds, Part II” (Annals of clinical case reports, 2022).
Where two headings read alike, the source gives them in different places. Marks after values point to notes of the source that are not given here.

Columns and labels:
[1] = test system: hypercholesterolemic subjects
[2] = test system: plasma miRNAs; parameters: method as in earlier work
[3] = parameters: method as in ref 14 = [14]; PMID 27493840; doi:10.4172/2155-9880.1000434; 14. Qureshi AA , Khan DA , Saleem S , Silswal N , Trias AM , Tan B , Pharmacokinetics and bioavailability of Annatto δ-tocotrienol in healthy fed subjects . J Clin Exp Cardiol . 2015; 6 : 11 . 10.417
[4] = test system: 20S rabbit muscle proteasome
[5] = test system: TNF-α; details: LPS-induced macrophages of PPAR-α knockout female mice
[6] = test system: Liver cancer cells; parameters: method as in PMID 29606130; value at effective dose: unit not given here
[7] = test system: Prostate cancer cells; parameters: method as in PMID 29606130; value at effective dose: scale not given here;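 as to IC50: anti-proliferation of cancer cells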
[8] = test system: Breast cancer cells; parameters: method as in PMID 29606130; value at effective dose: unit not given here;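 as to IC50: anti-proliferation of cancer cells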
[9] = test system: Lung cancer cells; parameters: method as in PMID 29606130; value at effective dose: unit not given here
[10] = test system: B-Lymphocyte cells; parameters: method as in PMID 29606130; value at effective dose: unit not given here;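 as to IC50: anti-proliferation of cancer cells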
[11] = test system: T-cells (Jurkat); parameters: method as in PMID 29606130
[12] = test system: people with T2DM
[13] = 250 mg/d + AHA Step-1 diet, baseline = 100
[14] = plasma tocol after single 125 mg δ-tocotrienol dose, healthy fed subjects
[15] = plasma tocol after single 125 mg δ-tocotrienol dose, healthy fed subjects, listed as δ-tocotrienol
[16] = plasma tocol after single 250 mg δ-tocotrienol dose, healthy fed subjects
[17] = plasma tocol after single 250 mg δ-tocotrienol dose, healthy fed subjects, listed as δ-tocotrienol
[18] = plasma tocol after single 500 mg δ-tocotrienol dose, healthy fed subjects
[19] = plasma tocol after single 500 mg δ-tocotrienol dose, healthy fed subjects, listed as δ-tocotrienol
[20] = serum, two capsules/d for 24-weeks

In the case of `CC(C)=CCC/C(C)=C/CC/C(C)=C/CC[C@]1(C)CCc2cc(O)cc(C)c2O1` [δ-Tocotrienol], the “reduction of LDL-cholesterol (maximum effect)” value ([1]; 250 mg/d + AHA Step-1 diet) is listed as 18%, the “reduction of total cholesterol (maximum effect)” value ([1]; 250 mg/d + AHA Step-1 diet) is listed as 15% and the “reduction of triglycerides (maximum effect)” value ([1]; 250 mg/d + AHA Step-1 diet) is listed as 14%. The “effect on HDL-cholesterol” value ([1]; 125-750 mg/d + AHA Step-1 diet) was “without affecting”, the “levels of lipid parameters” value ([1]; above 500 mg/d dose + AHA Step-1 diet) was “induction” and the “plasma miRNA-7a” value [2, 13] was 168.0 ± 1.41. The “plasma miRNA-15a” value [2, 13] was 179.0 ± 1.41, the “plasma miRNA-20a” value [2, 13] was 168.00 ± 2.24 and the “plasma miRNA-21” value [2, 13] was 143.0 ± 2.83. For the same compound, the “plasma miRNA-29a” value [2, 13] was 142.0 ± 2.83, the “plasma miRNA-92a” value [2, 13] was 153.5 ± 2.12 and the “plasma miRNA-200” value [2, 13] was 146.0 ± 1.41. For the same compound, the “plasma miRNA-206” value [2, 13] was 150 ± 2.83, the “Circulating miRNA-7a, miRNA-15a, miRNA-20a, miRNA-21, miRNA-29a, miRNA-92a, miRNA-200, miRNA-206” value ([2]; compared to baseline in hypercholesterolemic subjects) was “up-regulated” and the “Time of clearance (Cl-T)” value ([3]; 125 mg/d Annatto δ-tocotrienol) was 0.049 h⁻¹. For the same compound, the “Time of clearance (Cl-T)” value ([3]; 250 mg/d Annatto δ-tocotrienol) was 0.045 h⁻¹, the “Time of clearance (Cl-T)” value ([3]; 500 mg/d Annatto δ-tocotrienol) was 0.030 h⁻¹ and the “time of appearance in the plasma” value ([3]; after δ-tocotrienol administration to well-fed subjects) was over 2 h. The “Apparent volume of distribution (Vd/f)” value [3, 14] was 0.179 ± 0.035^a, the “Elimination of Half-life time (t1/2)” value [3, 14] was 1.74 ± 0.36^a h and the “Elimination rate constant (ke)” value [3, 14] was 0.381 ± 0.059^a h-1. The “Plasma Peak Concentration (Cmax)” value [3, 14] was 828.82 ± 24.28^a ng/mL, the “Time of clearance (Cl-T)” value [3, 14] was 0.049 ± 0.004^a I/h and the “Time to achieve plasma peak (Tmax)” value [3, 14] was 3.00 h. The Area Under Curve-0 - 10 (AUC0-10) [3, 15] was 2460 ng·h/mL, the “Plasma Peak Concentration (Cmax)” value [3, 15] was 829 ng/mL and the “Apparent volume of distribution (Vd/f)” value [3, 16] was 0.114 ± 0.011^b. The “Elimination of Half-life time (t1/2)” value [3, 16] was 1.39 ± 0.22^a h, the “Elimination rate constant (ke)” value [3, 16] was 0.401 ± 0.039^b h-1 and the “Plasma Peak Concentration (Cmax)” value [3, 16] was 1920.36 ± 57.99^b ng/mL. For the same compound, the “Time of clearance (Cl-T)” value [3, 16] was 0.045 ± 0.002^a I/h, the “Time to achieve plasma peak (Tmax)” value [3, 16] was 3.00 h and the Area Under Curve-0 - 10 (AUC0-10) [3, 17] was 5410 ng·h/mL. For the same compound, the “Plasma Peak Concentration (Cmax)” value [3, 17] was 1920 ng/mL, the “Apparent volume of distribution (Vd/f)” value [3, 18] was 0.613 ± 0.102^c and the “Elimination of Half-life time (t1/2)” value [3, 18] was 2.54 ± 0.05^b h. For the same compound, the “Elimination rate constant (ke)” value [3, 18] was 0.050 ± 0.008^c h-1, the “Plasma Peak Concentration (Cmax)” value [3, 18] was 3278.00 ± 124.13^c ng/mL and the “Time of clearance (Cl-T)” value [3, 18] was 0.030 ± 0.001^b I/h. For the same compound, the Area Under Curve-0 - 10 (AUC0-10) [3, 19] was 15000 ng·h/mL, the “Elimination rate constant (ke)” value [3, 19] was 0.265 h⁻¹ and the “Time to achieve plasma peak (Tmax)” value [3, 19] was 6 h. The bioavailability ([3]; when tocotrienols are supplemented in absence of tocopherols) was “better bioavailability”, the “chymotrypsin-like activity of 20S rabbit muscle proteasome” value ([4]; 40 μM) was “inhibition” and the “chymotrypsin-like activity of 20S rabbit muscle proteasome” value ([4]; 80 μM) was “activation”. The “effect on secretion of TNF-α” value [5] was “activation”, the IC50 [6] was 20 µM and the “percentage of control at IC50 dose” value [6] was 53%. The effective dose ([6]; 48 h) was 20 µM, the “percentage of control at effective dose” value ([6]; 48 h) was 24% and the “value at effective dose” value ([6]; 48 h) was 17.7 ± 2.1. For the same compound, the IC50 [7] was 10 µM, the “percentage of control at IC50 dose” value [7] was 39% and the effective dose ([7]; 48 h) was 20 µM. The “percentage of control at effective dose” value ([7]; 48 h) was 35%, the “value at effective dose” value ([7]; 48 h) was 12.3 ± 1.5 and the IC50 [8] was 10 µM. For the same compound, the effective dose [8] was 20 µM, the “percentage of control at IC50 dose” value [8] was 49% and the “percentage of control at effective dose” value [8] was 56%. The “value at effective dose” value [8] was 10.7 ± 0.6, the IC50 [9] was 20 µM and the effective dose [9] was 20 µM. The “percentage of control at IC50 dose” value [9] was 11%, the “percentage of control at effective dose” value [9] was 11% and the “value at effective dose” value [9] was 8.3 ± 2.1. The IC50 [10] was 10 µM, the effective dose [10] was 20 µM and the “percentage of control at IC50 dose” value [10] was 55%. The “percentage of control at effective dose” value [10] was 21%, the “value at effective dose” value [10] was 2.7 ± 1.5 and the IC50 [11] was 20 µM. The “percentage of control at IC50 dose” value [11] was 32%, the “Fasting Glucose, Post-dose, percentage of control (pre-dose) in parentheses” value [12, 20] was 93% and the “MDA, Post-dose” value [12, 20] was 3.22 µmol/L. For the same compound, the “MDA, Post-dose, percentage of control (pre-dose) in parentheses” value [12, 20] was 89%, the “hs-CRP, Post-dose” value [12, 20] was 3.10 mg/L and the “hs-CRP, Post-dose, percentage of control (pre-dose) in parentheses” value [12, 20] was 88%. The “Fasting Glucose, Post-dose” value ([12]; serum, two capsules/d for 24-weeks (δ-tocotrienol 250 mg, vitamin D3 5000 IU, resveratrol 250 mg per capsule)) was 6.85 mmol/L, the “Fasting HbA1c, Post-dose” value ([12]; two capsules/d for 24-weeks) was 7.79% and the “Fasting HbA1c, Post-dose, percentage of control (pre-dose) in parentheses” value ([12]; two capsules/d for 24-weeks) was 92%. For the same compound, the “HOMA-IR, Post-dose” value ([12]; two capsules/d for 24-weeks) was 4.51 and the “HOMA-IR, Post-dose, percentage of control (pre-dose) in parentheses” value ([12]; two capsules/d for 24-weeks) was 86%.
